In assay [1] the target is T1, KRas^G12V (Homo sapiens, UniProt P01116, G12V).
T1 construct: […]; biotin (biotinylated); purchased Accelegan Inc
In words: KRas binding assay (TR-FRET displacement of Cy5 labelled tracer). For orientation: In TR-FRET formats the signal depends on donor and acceptor labels being close together.
Protocol: (§4) The ability of a compound to bind to KRas was measured using a TR-FRET displacement assay. […] After a 60-minute incubation at room temperature, the reaction was measured using a BMG LABTECH CLARIO star Plus via TR-FRET. […] The POC values were fit to a 4-parameter IC50 equation and the IC50 value reported.

Assay [2] addresses T2, KRas^G12D (Homo sapiens, UniProt P01116, G12D).
T2 construct: […]; biotin (biotinylated); purchased Accelegan Inc
Described as above.
Protocol: as §4

Assay [3] concerns PSN1 cells, pERK. Kind of assay: Inhibition of KRas phosphorylation of ERK (Cisbio HTRF Advanced pERK assay). The assay is classed as cell-based. Conditions: Homo sapiens, PSN1, 3 h, read-out: Inhibition (HTRF IC50 nM) of KRas-mediated Phosphorylation of ERK, PSN1. The protocol:
(§1) Inhibition of KRas Phosphorylation of ERK (HTRF) by Exemplary Compounds of Formula (I)
(§2) Cisbio HTRF Advanced pERK Assay Catalog #64AERPEH
(§3) • Day 1: Seed 6,000 cells/well −25 μl/well in 384-well white solid bottom plate; RPM1_10% FBS. […] To harvest cells from flask using 0.05% Trypsin/EDTA solution. Add 10 mL of media to stop trypsinizing. Pipette the cells into a conical bottom 50 mL centrifuge tube and centrifuge 5 min×1000 rpm. • 2. Re-suspend the cell pellet in media, take a cell count, and then adjust the cell density using fresh media. • 3. Seed 6,000 cells into cell culture plate with […]. The • 4. Incubate cell plate overnight in a 37° C., 5% CO2 incubator. Compound Titrations • 1. Use Tecan to complete the compound addition. Compounds start from 10 uM top, 3-fold dilution, and 10 doses. The final DMSO concentration is 0.8%. Dispensed 0.2 uM Trametinib as Min control. • 2. Incubate cell plate for 3 hrs in the incubator. Detection with Cisbio pERK HTRF Kit • 1. Dilute 1 volume of 4× lysis buffer with 3 volumes of deionized water. Then, add 100× the blocking reagent. Keep lysis buffer on the ice. • 2. At the end of the compound treatment, flick-off the media. • 3. Add 35 μL of lysis buffer per well using a Multidrop Combi. Then place on a plate agitator shaking at 300 rpm at 4° C. for 40 mins. • 4. Make up the HTRF antibody buffer. For each assay plate, mix 50 μL of d2-conjugate antibody with 950 μL of detection buffer. Similarly, mix 50 μL of Cryptate antibody with 950 μL of detection buffer. Then mix the two diluted antibodies together. • 5. Dispense 3.4 μL the antibody buffer to wells of an empty assay plate. Seal the plate and centrifuge plate 30 sec×1000 rpm. • 6. At the end of the 4° C. lysis, centrifuge the lysate plates 3 mins×1500 rpm. • 7. Use the Bravo to transfer 13.6 μL of lysate from cell culture plate to assay plate. Then incubate assay plate for 2 hrs at room temperature. • 8. At the end of incubation, read plate on the Envision after centrifuging plate 30 sec×1000 rpm.

Assay [4] deals with ASPC1 cells, pERK. Described as above. The assay is classed as cell-based. Conditions: Homo sapiens, ASPC1, 3 h, AsPC-1 cells, read-out: Inhibition (HTRF IC50 nM) of KRas-mediated Phosphorylation of ERK, AsPC-1. The procedure: as §1, §2, §3
The subject of assay [5] is MKN1 cells, pERK. The assay is described as above. The class given is cell-based. The following applies: Homo sapiens, MKN-1, 3 h, read-out: Inhibition (HTRF IC50 nM) of KRas-mediated Phosphorylation of ERK, MKN1. The protocol: as §1, §2, §3
Assay [6] relates to H727 cells, pERK. The assay is described as above. Conditions: Homo sapiens, NCI-H727, 3 h, read-out: Inhibition (HTRF IC50 nM) of KRas-mediated Phosphorylation of ERK, H727. The assay is classed as cell-based. The protocol: as §1, §2, §3
Assay [7] deals with T3, KRas^G12R (Homo sapiens, UniProt P01116, G12R).
T3 construct: […]; biotin (biotinylated); purchased Accelegan Inc
T3 sequence (P01116 1-169 isoform P01116-2 G12R): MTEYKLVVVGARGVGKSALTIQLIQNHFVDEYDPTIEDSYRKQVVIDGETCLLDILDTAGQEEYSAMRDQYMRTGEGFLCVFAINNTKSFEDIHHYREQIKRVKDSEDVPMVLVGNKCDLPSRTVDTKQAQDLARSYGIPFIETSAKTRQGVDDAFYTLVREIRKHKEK
Kind of assay: KRas binding assay (TR-FRET displacement of Cy5 labelled tracer).
Protocol: as §4

Structures are written as SMILES.

For ten molecules, IC50 results are on record in patent publication US12421253B2 (Mirati Therapeutics, Inc., priority 2020, dated 2025).

T1 sequence (P01116 1-169 isoform P01116-2 G12V): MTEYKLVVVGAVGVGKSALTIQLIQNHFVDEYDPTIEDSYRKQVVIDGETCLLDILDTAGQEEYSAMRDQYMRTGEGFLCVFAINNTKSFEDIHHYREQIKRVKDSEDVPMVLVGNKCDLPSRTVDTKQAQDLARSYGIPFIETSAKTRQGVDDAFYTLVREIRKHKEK
T2 sequence (P01116 1-169 isoform P01116-2 G12D): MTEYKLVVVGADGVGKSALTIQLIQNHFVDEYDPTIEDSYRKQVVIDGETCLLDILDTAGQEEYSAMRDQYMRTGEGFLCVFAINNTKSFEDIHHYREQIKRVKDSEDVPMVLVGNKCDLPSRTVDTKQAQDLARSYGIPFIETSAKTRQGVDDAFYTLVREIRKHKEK

For orientation: IC50 means the concentration that inhibits the measured activity by half. As to `CCc1c(F)ccc2cc(O)cc(N3CCc4c(nc(OC[C@@]56CCCN5C[C@H](F)C6)nc4N4C[C@H]5CC[C@H](O)[C@H]5C4)C3)c12` [Example 182, (3aR,4S,6aS)-2-(7-(8-ethyl-7-fluoro-3-hydroxynaphthalen-1-yl)-2-(((2R,7aS)-2-fluorohexahydro-1H-pyrrolizin-7a-yl)methoxy)-5,6,7,8-tetrahydropyrido[3,4-d]pyrimidin-4-yl)octahydrocyclopenta[c]pyrrol-4-ol], the IC50 is 75 nM in assay [1]; 209 nM in assay [2]; not below 10000 nM in assay [3]; 3920 nM in assay [4]; 1300 nM in assay [5]; 4660 nM in assay [6]. In addition, in assay [7], the IC50 is 118 nM.

As for `CCc1c(F)ccc2cc(O)cc(N3CCc4c(nc(OC[C@@]56CCCN5C[C@H](F)C6)nc4N4C[C@H]5C[C@H](O)C[C@H]5C4)C3)c12` [Example 183, (3aR,5R,6aS)-2-(7-(8-ethyl-7-fluoro-3-hydroxynaphthalen-1-yl)-2-(((2R,7aS)-2-fluorohexahydro-1H-pyrrolizin-7a-yl)methoxy)-5,6,7,8-tetrahydropyrido[3,4-d]pyrimidin-4-yl)octahydrocyclopenta[c]pyrrol-5-ol], the IC50 in assay [1] was 54 nM; in assay [2], 150 nM; in assay [3] it was not below 10000 nM; in assay [4], 1540 nM; in assay [5], 498 nM; in assay [6] it was 2920 nM. Moreover, the IC50 in assay [7] is 23 nM.

Turning to `CCc1c(F)ccc2cc(O)cc(N3CCc4c(nc(OC[C@@]56CCCN5C[C@H](F)C6)nc4N4C[C@H]5C[C@@H](O)C[C@H]5C4)C3)c12` [Example 184, (3aR,5S,6aS)-2-(7-(8-ethyl-7-fluoro-3-hydroxynaphthalen-1-yl)-2-(((2R,7aS)-2-fluorohexahydro-1H-pyrrolizin-7a-yl)methoxy)-5,6,7,8-tetrahydropyrido[3,4-d]pyrimidin-4-yl)octahydrocyclopenta[c]pyrrol-5-ol], the IC50 is 12 nM in assay [1]; 23 nM in assay [2]; not below 10000 nM in assay [3]; 770 nM in assay [4]; 652 nM in assay [5]; 796 nM in assay [6]. The molecule further had an IC50 in assay [7] of 11 nM.

As for `CCc1c(F)ccc2cc(O)cc(N3CCc4c(nc(OC[C@@]56CCCN5C[C@H](F)C6)nc4N4C[C@H]5CC[C@@H](O)[C@H]5C4)C3)c12` [Example 185, (3aR,4R,6aS)-2-(7-(8-ethyl-7-fluoro-3-hydroxynaphthalen-1-yl)-2-(((2R,7aS)-2-fluorotetrahydro-1H-pyrrolizin-7a(5H)-yl)methoxy)-5,6,7,8-tetrahydropyrido[3,4-d]pyrimidin-4-yl)octahydrocyclopenta[c]pyrrol-4-ol], the IC50 in assay [1] is 52 nM; in assay [2] it was 143 nM; in assay [3], not below 10000 nM; in assay [4] it was 5120 nM; in assay [5] it was 1540 nM; in assay [6] it was 3720 nM. The molecule also gave a 50% inhibitory concentration (IC50) in assay [7] of 46 nM.

As to `CCc1c(F)ccc2cc(O)cc(N3CCc4c(nc(OC[C@@]56CCCN5C[C@H](F)C6)nc4N4CCCn5nc(C(=O)N(C)C)c(Cl)c5C4)C3)c12` [Example 192, 3-chloro-5-(7-(8-ethyl-7-fluoro-3-hydroxynaphthalen-1-yl)-2-(((2R,7aS)-2-fluorotetrahydro-1H-pyrrolizin-7a(5H)-yl)methoxy)-5,6,7,8-tetrahydropyrido[3,4-d]pyrimidin-4-yl)-N,N-dimethyl-5,6,7,8-tetrahydro-4H-pyrazolo[1,5-a][1,4]diazepine-2-carboxamide], the IC50 in assay [1] was not above 2 nM; in assay [2], not above 2 nM; in assay [3], not below 10000 nM; in assay [4], 24 nM; in assay [5], 11 nM; in assay [6], 29 nM. Also, the IC50 in assay [7] is 3 nM.

As for `CCc1c(F)ccc2cc(O)cc(N3CCc4c(nc(OC[C@@]56CCCN5C[C@H](F)C6)nc4N4CCCc5nn(C(=O)NC(C)C)cc5C4)C3)c12` [Example 195, 5-(7-(8-ethyl-7-fluoro-3-hydroxynaphthalen-1-yl)-2-(((2R,7aS)-2-fluorohexahydro-1H-pyrrolizin-7a-yl)methoxy)-5,6,7,8-tetrahydropyrido[3,4-d]pyrimidin-4-yl)-N-isopropyl-5,6,7,8-tetrahydropyrazolo[4,3-c]azepine-2(4H)-carboxamide], the concentration for half-maximal inhibition (IC50) is 8 nM in assay [1]; 17 nM in assay [2]; not below 10000 nM in assay [3]; 1110 nM in assay [4]; 1520 nM in assay [5]; 373 nM in assay [6]. For the same molecule, the half-inhibitory concentration (IC50) in assay [7] stood at 20 nM.

Take `CCc1c(F)ccc2cc(O)cc(N3CCc4c(nc(OCC5(CN(C)C)CC5)nc4N4CCCC5(CNS(=O)(=O)N5)C4)C3)c12` (stereo not shown) [Example 202, 7-(2-((1-((dimethylamino)methyl)cyclopropyl)methoxy)-7-(8-ethyl-7-fluoro-3-hydroxynaphthalen-1-yl)-5,6,7,8-tetrahydropyrido[3,4-d]pyrimidin-4-yl)-2-thia-1,3,7-triazaspiro[4.5]decane 2,2-dioxide]: the IC50 in assay [1] was not above 2 nM; in assay [2], not above 2 nM; in assay [3], 3900 nM; in assay [4] it was 543 nM; in assay [5], 101 nM; in assay [6], 1350 nM. The molecule further showed an IC50 in assay [7] of 7 nM.

As to `Oc1cc(N2CCc3c(nc(OC[C@@]45CCCN4C[C@H](F)C5)nc3N3CC4CC(O)C(C4)C3)C2)c2c(Br)c(F)ccc2c1` (stereo partly drawn) [Example 215, 3-(7-(8-bromo-7-fluoro-3-hydroxynaphthalen-1-yl)-2-(((2R,7aS)-2-fluorohexahydro-1H-pyrrolizin-7a-yl)methoxy)-5,6,7,8-tetrahydropyrido[3,4-d]pyrimidin-4-yl)-3-azabicyclo[3.2.1]octan-6-ol], the IC50 was found to be 3 nM in assay [1]; 10 nM in assay [2]; 7580 nM in assay [3]; 1300 nM in assay [4]; 203 nM in assay [5]; 957 nM in assay [6]. In addition, the IC50 in assay [7] was determined as 3 nM.

As for `OCC1COCCN(c2nc(OC[C@@]34CCCN3C[C@H](F)C4)nc3c2CCN(c2cc(O)cc4ccc(F)c(Br)c24)C3)C1` (stereo partly drawn) [Example 220, 5-bromo-6-fluoro-4-(2-(((2R,7aS)-2-fluorohexahydro-1H-pyrrolizin-7a-yl)methoxy)-4-(6-(hydroxymethyl)-1,4-oxazepan-4-yl)-5,6-dihydropyrido[3,4-d]pyrimidin-7(8H)-yl)naphthalen-2-ol], the IC50 in assay [1] is not above 2 nM; in assay [2], not above 2 nM; in assay [3] it was 4100 nM; in assay [4] it was 668 nM; in assay [5], 29 nM; in assay [6] it was 616 nM. Also, the IC50 in assay [7] is not above 2 nM.

Take `Oc1cc(N2CCc3c(nc(OC[C@@]45CCCN4C[C@H](F)C5)nc3N3CCOCC(n4cccn4)C3)C2)c2c(Br)c(F)ccc2c1` (stereo partly drawn) [Example 221, 4-(4-(6-(1H-pyrazol-1-yl)-1,4-oxazepan-4-yl)-2-(((2R,7aS)-2-fluorotetrahydro-1H-pyrrolizin-7a(5H)-yl)methoxy)-5,8-dihydropyrido[3,4-d]pyrimidin-7(6H)-yl)-5-bromo-6-fluoronaphthalen-2-ol]: the IC50 in assay [1] was 3 nM; in assay [2] it was 4 nM; in assay [3] it was not below 10000 nM; in assay [4], 1360 nM; in assay [5] it was 145 nM; in assay [6] it was 1460 nM. The half-inhibitory concentration (IC50) in assay [7] came to 5 nM.
